For test [1], the system named is COL17A1 KO human colorectal cancer organoids. Put plainly: YAP signaling inhibitor on COL17A1 KO organoids, proportion of LGR5-positive p27-positive cells. Type of test: cell-based. The note with it: 20 μM, 2 days. The protocol:
A YAP signaling inhibitor was allowed to act on COL17A1 KO organoids to study an effect on dormancy of cancer stem cells. As a YAP signaling inhibitor, MYF-01-37 (CAS No. 2416417-65-5), a low-molecular-weight TEAD inhibitor (TEADi) that disrupts YAP/TAZ-TEAD protein-protein interactions, was used (20 μM, 2 days). […] The scale bar is 100 μm. The right side of FIG. 11 is a graph showing results of measuring the proportion of LGR5-positive p27-positive cells based on the photographs on the left side of FIG. 11.

Test [2] has as its system Human colorectal cancer organoids (CCO32 strain). The test is described as follows: Experimental Example 14: organoid xenograft, TEAD inhibitor after irinotecan. Type of test: in vivo, NOG mice. The protocol: The upper row in FIG. 18 is a schematic view showing a schedule of this experiment. Human colorectal cancer organoids (CCO32 strain) were xenotransplanted into the subcutis of immunodeficient NOG mice. Thereafter, irinotecan was administered once a week for three times, followed by administering a TEAD inhibitor over a long period of time to inhibit YAP signaling. Thereafter, administration of the TEAD inhibitor was discontinued. As a TEAD inhibitor, MYF-01-37 (CAS No. 2416417-65-5) was used.
The lower row in FIG. 18 is a group showing change in tumor size in mice of each group over time. In the lower row in FIG. 18, “Vehicle” indicates a result of a group into which only a solvent was administered, “TEADi” indicates a result of a group into which only a TEAD inhibitor was administered, “IRI” indicates a result of a group into which only irinotecan was administered, and “IRI+TEADi” indicates a result of a group into which irinotecan and a TEAD inhibitor were administered.

The subject of test [3] is human colorectal cancer organoids (CCO32 strain). The test is described as follows: Camptothecin treatment with or without FAK inhibitor, proportion of LGR5-positive p27-positive cells. Type of test: cell-based. The note with it: co-treatment with camptothecin; FAK inhibitor 10 nM, 24 hours / 10 μm as printed; camptothecin 5 days. The protocol: The scale bar is 100 μm. As a FAK inhibitor, PF573228 (CAS No. 869288-64-2) was used (10 μm). In FIG. 13, “FAKi” indicates a FAK inhibitor. FIG. 14 is a graph showing results of measuring the proportion of the LGR5-positive p27-positive cells when the human colorectal cancer organoids are treated or not treated with camptothecin for 5 days in the presence or absence of a FAK inhibitor. In FIG. 14, “N.S.” indicates no significant difference.

For a further test, the system named is YAP signaling. The test is described as follows: Nuclear translocation of YAP in camptothecin-treated organoids (confocal). Particulars: CCO7 and CCO32 strains, camptothecin treatment. Type of test: cell-based, human. The source says: The scale bar is 100 μm. The right side of FIG. 10 is a graph showing results of measuring the proportion of cells containing YAP that has undergone nuclear translocation based on the photographs on the left side of FIG. 10.

The next test concerns COL17A1, pFAK. Put plainly: Capillary-based immunoassay for COL17A1, pFAK and total FAK in camptothecin-treated organoids. The test is classed as cell-based, human. The note with it: camptothecin 50 nM; CCO7 and CCO32 strains.
Test [4] relates to COL17A1 KO human colorectal cancer organoids. Put plainly: Chemotherapy sensitivity of COL17A1 KO organoids. The test is classed as cell-based. Particulars: compared to COL17A1 WT and hetero KO organoids. The source says:
The chemotherapy sensitivity of COL17A1 KO human colorectal cancer organoids was studied.

In test [5] the test system is human colorectal cancer organoids. Put plainly: Colony formation of sorted cells after camptothecin treatment of organoids. Type of test: cell-based. Particulars: 50 nM; 1,000 sorted cells cultured; day 13 after sorting. The protocol:
The human colorectal cancer organoids were treated with camptothecin (CPT) which is a topoisomerase inhibitor (50 nM). Subsequently, the LGR5-positive p27-positive cells, the LGR5-positive p27-negative cells, LGR5-negative p27-positive cells, and LGR5-negative p27-negative cells were sorted and collected with a cell sorter, and 1,000 cells of each type were cultured.
The numerical values in FIG. 4 show the number of colonies (average value±standard error). The scale bar is 1 mm.

Test [6] has as its system COL17A1 KO human colorectal cancer organoids xenotransplanted in mice. Put plainly: Tumor size after irinotecan in COL17A1 KO xenografts. The test is classed as in vivo. Particulars: COL17A1 KO vs COL17A1 WT xenografts. The protocol:
Subsequently, irinotecan was administered to mice xenotransplanted with COL17A1 KO human colorectal cancer organoids, and the tumor size was measured over time. The upper row in FIG. 8 is a schematic view showing a schedule of this experiment. The lower row in FIG. 8 is a graph showing change in tumor size over time. […] In addition, indicates a significant difference at p<0.05.

The subject of test [7] is human colorectal cancer organoids xenotransplanted in mice. The test is described as follows: In vivo imaging of survival of LGR5-positive cells after irinotecan. The protocol: Whether or not the LGR5-positive p27-positive cells resistant to the chemotherapeutic agent contribute to relapse or recurrence of tumors after chemotherapy was studied in vivo. Specifically, irinotecan was administered to mice xenotransplanted with human colorectal cancer organoids, followed by in vivo imaging and genetic lineage-tracing of the LGR5-positive p27-positive cells and the LGR5-positive p27-negative cells over time.
FIG. 5 is a graph showing results obtained by measuring the survival rate of LGR5-positive p27-positive cells and LGR5-positive p27-negative cells after administration of irinotecan.

Test [8] deals with Doxycycline-inducible YAP/TAZ-knockdown human colorectal cancer organoids. Put plainly: Experimental Example 12: doxycycline-inducible YAP/TAZ-knockdown organoid xenograft, irinotecan. The test is classed as in vivo, NOG mice. The note with it: irinotecan only. On the procedure:
The upper row in FIG. 15 is a schematic view showing a schedule of this experiment. Doxycycline-inducible YAP/TAZ-knockdown human colorectal cancer organoids were produced and xenotransplanted into the subcutis of immunodeficient NOG mice. Thereafter, irinotecan was administered. […] The scale bar is 100 μm. In the lower row in FIG. 15, “Control” indicates a result of a group into which neither irinotecan nor doxycycline has been administered, “Dox” indicates a result of a group into which only doxycycline was administered, “Irinotecan” indicates a result of a group into which only irinotecan was administered, and “Irinotecan +Dox” indicates a result of a group into which irinotecan and doxycycline were administered. FIG. 16 is a group showing change in tumor size in mice of each group over time. As a result, in FIG. 16, “Control,” “Dox,” “Irinotecan,” and “Irinotecan +Dox” show the same meaning as in the lower row in FIG. 15. In addition, “*” indicates a significant difference at p<0.05.

The test system is the same in test [9]. The test is described as follows: Experimental Example 13: YAP/TAZ-knockdown organoid xenograft, doxycycline after irinotecan. Type of test: in vivo, NOG mice. The note with it: irinotecan once a week for three times, no doxycycline. The protocol:
How the inhibition of YAP signaling affects tumor regrowth after chemotherapy was studied. The upper row in FIG. 17 is a schematic view showing a schedule of this experiment. Doxycycline-inducible YAP/TAZ-knockdown human colorectal cancer organoids were produced and xenotransplanted into the subcutis of immunodeficient NOG mice. Thereafter, irinotecan was administered once a week for three times, followed by administering doxycycline over a long period of time to inhibit YAP signaling. Thereafter, administration of doxycycline was discontinued. The lower row in FIG. 17 is a group showing change in tumor size in mice of each group over time. In the lower row in FIG. 17, “Irinotecan” indicates a result of the group into which only irinotecan was administered, and “Irinotecan +Dox” indicates a result of the group into which irinotecan and doxycycline were administered.

[10] abbreviates: irinotecan only, no TEAD inhibitor.

From patent US20260276624A1, “PROPHYLACTIC OR THERAPEUTIC AGAINST EXACERBATION OR RECURRENCE OF CANCER, AND SCREENING METHOD THEREFOR” (KEIO UNIVERSITY, priority 2022, published 2026) come the findings set out here.

Turning to `C=CC(=O)N1CCC(C)(Nc2cccc(C(F)(F)F)c2)C1` (stereo not shown) [MYF-01-37], the “p27-positive cells in COL17A1 KO organoids” value in [1] is recorded as “led to reappearance of p27-positive cells”. Besides, the tumor size result in test [2] (TEAD inhibitor after irinotecan (once a week for three times)) is given as “tumor size was reduced to a minimum”. Besides, the tumor inhibition effect entry in [2] (TEAD inhibitor alone) was “did not show any tumor inhibition effect”.

As to `CS(=O)(=O)c1cccc(CNc2nc(Nc3ccc4c(c3)CCC(=O)N4)ncc2C(F)(F)F)c1` [PF573228], in [3], the “cell cycle reentry of LGR5-positive p27-positive cells after camptothecin exposure” value is on record as “inhibited cell cycle reentry”.

Consider `CC[C@@]1(O)C(=O)OCc2c1cc1n(c2=O)Cc2cc3ccccc3nc2-1` [camptothecin], for which the “YAP signaling (nuclear translocation of YAP) in LGR5-positive p27-positive cells” value in the test with YAP signaling is reported as “activates YAP signaling”. Besides, in the test on COL17A1, pFAK, the “expression of COL17A1” value is reported as “expression of COL17A1 was deleted” and the “phosphorylation of FAK” value is “phosphorylation of FAK occurred”. The “sensitivity of COL17A1 KO organoids to camptothecin” value in test [4] is “more sensitive”. Further, in [5], the “colony formation of LGR5-positive p27-negative cells after camptothecin treatment” value is “showed no colony formation” and the “colony formation of LGR5-positive p27-positive cells after camptothecin treatment” value is “showed colony formation”.

Consider `CCc1c2c(nc3ccc(OC(=O)N4CCC(N5CCCCC5)CC4)cc13)-c1cc3c(c(=O)n1C2)COC(=O)[C@]3(O)CC` [irinotecan], for which the “tumor regeneration after administration of irinotecan” value in [6] is listed as “more inhibited in COL17A1 KO xenografts than in COL17A1 WT xenografts”. Besides, in [7], the “survival of LGR5-positive p27-negative cells after administration of irinotecan” value is given as “disappeared during an observation period”. The “survival of LGR5-positive p27-positive cells after administration of irinotecan” value in test [7] is “tolerated chemotherapy and remained”. For the same molecule, the “therapeutic effect (tumor size over time)” value in [8] is “transient”; in [9], “transient therapeutic effect”; in [2] (setting [10]) it was “transient therapeutic effect”. Also, the “nuclear translocation of YAP in graft” value in test [8] (three days from administration, immunostaining) is “resulted in nuclear translocation of YAP in vivo”. Further, the “time of cancer regrowth” value in test [9] and in test [2] (setting [10]) was around 40 days throughout.
